The text below walks through data of PubChem BioAssay AID328 (DTP/NCI, 2004).

This assay relates to BDF1 mice, P388 leukemia ip, median survival T/C. Kind of assay: NCI In Vivo Anticancer Drug Screen. Data for tumor model P388 Leukemia (intraperitoneal) in B6D2F1 (BDF1) mice. Conditions: endpoint: median survival time, higher = longer survival. The essentials: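 Compound-treated tumour-bearing mice were compared with vehicle-treated controls. Survival was recorded, and the value is the treated-group measurement divided by the control-group measurement (T/C).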

Setting [1] is: dose: 3.12 mg/kg/injection, schedule: Q01DX009 (ip), vehicle: water.
The mark [2] stands for this setting: dose: 6.25 mg/kg/injection, schedule: Q01DX009 (ip), vehicle: water.
The mark [3] stands for this setting: dose: 12.5 mg/kg/injection, schedule: Q01DX009 (ip), vehicle: water.
[4] abbreviates: dose: 25.0 mg/kg/injection, schedule: Q01DX009 (ip), vehicle: water.
The mark [5] stands for this setting: dose: 25.0 mg/kg/injection, schedule: Q04DX003 (ip), vehicle: water.
[6] abbreviates: dose: 50.0 mg/kg/injection, schedule: Q01DX009 (ip), vehicle: water.
The mark [7] stands for this setting: dose: 50.0 mg/kg/injection, schedule: Q04DX003 (ip), vehicle: water.
[8] abbreviates: dose: 100.0 mg/kg/injection, schedule: Q01DX009 (ip), vehicle: water.
Where [9] appears, read: dose: 50.0 mg/kg/injection, schedule: Q01DX009 (ip), vehicle: saline with Tween-80.
Setting [10] is: dose: 100.0 mg/kg/injection, schedule: Q01DX009 (ip), vehicle: saline with Tween-80.
Setting [11] is: dose: 200.0 mg/kg/injection, schedule: Q01DX009 (ip), vehicle: saline with Tween-80.
[12] abbreviates: dose: 50.0 mg/kg/injection, schedule: Q04DX003 (ip), vehicle: saline with Tween-80.
The mark [13] stands for this setting: dose: 100.0 mg/kg/injection, schedule: Q04DX003 (ip), vehicle: saline with Tween-80.
[14] abbreviates: dose: 200.0 mg/kg/injection, schedule: Q04DX003 (ip), vehicle: saline with Tween-80.
[15] abbreviates: dose: 25.0 mg/kg/injection, schedule: Q04DX003 (ip), vehicle: saline with Tween-80.
The mark [16] stands for this setting: dose: 25.0 mg/kg/injection, schedule: Q01DX009 (ip), vehicle: saline with Tween-80.
Setting [17] is: dose: 50.0 mg/kg/injection, schedule: Q01DX009 (ip), vehicle: saline.
Setting [18] is: dose: 200.0 mg/kg/injection, schedule: Q01DX009 (ip), vehicle: saline.
Where [19] appears, read: dose: 25.0 mg/kg/injection, schedule: Q01DX009 (ip), vehicle: saline.
Where [20] appears, read: dose: 12.5 mg/kg/injection, schedule: Q01DX009 (ip), vehicle: saline with Tween-80.
Where [21] appears, read: dose: 100.0 mg/kg/injection, schedule: Q04DX003 (ip), vehicle: saline.
Where [22] appears, read: dose: 200.0 mg/kg/injection, schedule: Q04DX003 (ip), vehicle: saline.

Where “and” joins values, the source holds several entries; their conditions need not be identical. Identical values can stand only once. Inconclusive results and toxic doses are left out.

As for `O=C1C=CC(=O)c2c(O)c(CBr)c(CBr)c(O)c21`, the T/C by setting is: under setting [1], 96 % of control; under setting [2], 118 % of control; (dose: 6.25 mg/kg/injection, schedule: Q04DX003 (ip), vehicle: water) 105 % of control; under setting [3], 108 % of control; (dose: 12.5 mg/kg/injection, schedule: Q04DX003 (ip), vehicle: water) 105 % of control; under setting [4], 118 % of control. Also, the T/C was 100 % of control under setting [5], 112 % of control under setting [6], 107 % of control under setting [7] and 105 % of control under setting [8].

`Cc1ccc(S(=O)(=O)/C=C/c2ccccc2)cc1`: the T/C runs as follows: under setting [9], 100 % of control; under setting [10], 100 % of control; under setting [11], 103 % of control.

As to `CCN(C(C)(C)C(SSSC(c1ccc(Cl)cc1)C(C)(C)N(CC)S(C)(=O)=O)c1ccc(Cl)cc1)S(C)(=O)=O` (stereo unspecified), the T/C under setting [12] is 109 % of control, the T/C under setting [13] is 122 % of control and the T/C under setting [14] is 122 % of control.

With `COC(OC)c1nc(N)[nH]c(=O)c1Cc1ccc(C)c2ccccc12`, the T/C is 96 % of control under setting [10]; 109 % of control under setting [13]; 88 % of control under setting [11]; 100 % of control under setting [14]; 100 % of control (dose: 400.0 mg/kg/injection, schedule: Q04DX003 (ip), vehicle: saline with Tween-80).

`N#CC(C(N)=O)c1ccccc1` (stereo unspecified): the T/C reads like this: under setting [15], 102 % of control; under setting [12], 108 % of control; under setting [13], 97 % of control.

On to `O=C1C=C(NCc2ccccc2)CCC1`, for which the T/C under setting [16] was 108 % of control, the T/C under setting [9] is 100 % of control, the T/C under setting [17] was 96 % of control and the T/C under setting [18] is 105 % of control.

Regarding `CC1CN1P(=O)(OCCC#N)N1CC1C` (stereo unspecified), the T/C runs as follows: under setting [19], 115 % of control; under setting [17], 97 % of control; (dose: 100.0 mg/kg/injection, schedule: Q04DX003 (ip), vehicle: other) 163 % of control; (dose: 150.0 mg/kg/injection, schedule: Q01DX009 (ip), vehicle: other) 170 % of control; under setting [18], 160 % of control and 203 % of control; (dose: 200.0 mg/kg/injection, schedule: Q04DX003 (ip), vehicle: other) 227 % of control.

On to `C[C@@H]1C[C@H]2CC[C@H](O2)[C@H](C)C(=O)O[C@@H](C)C[C@@H]2CC[C@@H](O2)[C@@H](C)C(=O)O[C@H](C)C[C@H]2CC[C@H](O2)[C@H](C)C(=O)O[C@@H](C)C[C@@H]2CC[C@@H](O2)[C@@H](C)C(=O)O1`, for which the T/C is 90 % of control under setting [9], 109 % of control under setting [10], 104 % of control under setting [13] and 86 % of control under setting [14].

Regarding `Cc1c2oc3c(C)ccc(C(=O)NC(C)Cc4ccccc4)c3nc-2c(C(=O)NC(C)Cc2ccccc2)c(N)c1=O` (stereo unspecified), the T/C (dose: 100.0 mg/kg/injection, schedule: Q04DX002 (ip), vehicle: DMSO) was 87 % of control and the T/C (dose: 200.0 mg/kg/injection, schedule: Q04DX002 (ip), vehicle: DMSO) is 92 % of control.

Turning to `N=C1N=C(C(F)(F)F)N=C1c1[nH]c(C(F)(F)F)nc1N`, the T/C by setting is: under setting [1], 105 % of control; under setting [2], 105 % of control; under setting [3], 113 % of control; under setting [4], 103 % of control and 105 % of control; under setting [5], 100 % of control; under setting [6], 92 % of control. The T/C was 99 % of control under setting [7]; 106 % of control under setting [8]; 98 % of control (dose: 100.0 mg/kg/injection, schedule: Q04DX003 (ip), vehicle: water); 97 % of control (dose: 200.0 mg/kg/injection, schedule: Q01DX009 (ip), vehicle: water); 94 % of control (dose: 200.0 mg/kg/injection, schedule: Q04DX003 (ip), vehicle: water); 104 % of control (dose: 400.0 mg/kg/injection, schedule: Q01DX009 (ip), vehicle: water). Further, the T/C (dose: 400.0 mg/kg/injection, schedule: Q04DX003 (ip), vehicle: water) is 109 % of control.

Turning to `FC(F)(F)c1cc(-c2ccc(C3Nc4ccccc4-n4cccc43)o2)cc(C(F)(F)F)c1` (stereo unspecified), the T/C is 92 % of control under setting [9], 90 % of control under setting [10] and 92 % of control under setting [11].

Consider `c1cnc2c3c(ccc2c1)CN(C12CC4CC(CC(C4)C1)C2)CO3`, for which the T/C under setting [15] is 108 % of control; the T/C under setting [12] is 109 % of control and 113 % of control; the T/C under setting [13] is 108 % of control.

In the case of `COc1cccc(/C=N/NC(=O)C2CCN(C(=S)NC3CC4C=CC3C4)CC2)c1O` (stereo unspecified), the T/C (dose: 1.56 mg/kg/injection, schedule: Q01DX009 (ip), vehicle: saline with Tween-80) was 90 % of control; the T/C (dose: 3.12 mg/kg/injection, schedule: Q01DX009 (ip), vehicle: saline with Tween-80) is 89 % of control; the T/C (dose: 6.25 mg/kg/injection, schedule: Q01DX009 (ip), vehicle: saline with Tween-80) was 87 % of control and 92 % of control; the T/C under setting [20] was 89 % of control; the T/C under setting [16] is 92 % of control; the T/C under setting [9] is 101 % of control.

As to `CCN(CC)CCOC(=O)C(c1ccccc1)C1(O)CCCC(C)C1` (stereo unspecified), the T/C was 98 % of control (dose: 50.0 mg/kg/injection, schedule: Q01DX005 (ip), vehicle: saline); 90 % of control (dose: 100.0 mg/kg/injection, schedule: Q01DX005 (ip), vehicle: saline); 110 % of control (dose: 200.0 mg/kg/injection, schedule: Q01DX005 (ip), vehicle: saline).

On to `CC(=O)Nc1ccc(S(=O)(=O)NNC(=O)C(=O)Nc2cccc(Cl)c2)cc1`, for which the T/C reads like this: (dose: 50.0 mg/kg/injection, schedule: Q01DX005 (ip), vehicle: saline with Tween-80) 96 % of control; (dose: 100.0 mg/kg/injection, schedule: Q01DX005 (ip), vehicle: saline with Tween-80) 89 % of control; (dose: 200.0 mg/kg/injection, schedule: Q01DX005 (ip), vehicle: saline with Tween-80) 96 % of control.

Consider `COC1c2cnc(C)n2C=CN1C(C)=O` (stereo unspecified), for which the T/C is 99 % of control under setting [21]; 104 % of control under setting [22]; 94 % of control (dose: 300.0 mg/kg/injection, schedule: Q04DX003 (ip), vehicle: saline).

Regarding `CCOC(=O)c1cnc2c(OC)cccc2c1Cl`, the T/C by setting is: (dose: 4.0 mg/kg/injection, schedule: Q01DX009 (ip), vehicle: saline) 86 % of control; (dose: 8.0 mg/kg/injection, schedule: Q01DX009 (ip), vehicle: saline) 91 % of control; (dose: 16.0 mg/kg/injection, schedule: Q01DX009 (ip), vehicle: saline) 106 % of control; under setting [19], 120 % of control; under setting [17], 113 % of control; (dose: 50.0 mg/kg/injection, schedule: Q04DX003 (ip), vehicle: saline) 96 % of control. Further, the T/C (dose: 100.0 mg/kg/injection, schedule: Q01DX009 (ip), vehicle: saline) was 111 % of control; the T/C under setting [21] is 96 % of control; the T/C under setting [18] is 113 % of control; the T/C under setting [22] was 97 % of control; the T/C (dose: 400.0 mg/kg/injection, schedule: Q01DX009 (ip), vehicle: saline) was 113 % of control; the T/C (dose: 400.0 mg/kg/injection, schedule: Q04DX003 (ip), vehicle: saline) is 90 % of control.

On to `COc1cccc(Sc2ccc([N+](=O)[O-])c3nonc23)c1`, for which the T/C by setting is: under setting [20], 102 % of control; under setting [16], 107 % of control.

Regarding `O=C(/C=C(/c1ccccc1)P(=O)(c1ccccc1)c1ccccc1)c1ccccc1`, the T/C by setting is: under setting [10], 100 % of control; under setting [11], 95 % of control; (dose: 400.0 mg/kg/injection, schedule: Q01DX009 (ip), vehicle: saline with Tween-80) 100 % of control.
